Results reported in publication PMC7435868, “Structure-Based Virtual Screening, Synthesis and Biological Evaluation of Potential FAK-FAT Domain Inhibitors for Treatment of Metastatic Cancer” (Molecules, 2020).

Tests used:
BT474 = assay: Cell viability assay (CellTiter Glo), BT474; format: cell-based, human; conditions: Homo sapiens, BT-474, 72 h, 72 h incubation, mean of independent triplicate experiments, read-out: In vitro anti-proliferative activity IC50, BT474 ER+ PR+/- HER+
Method: (§1) The antiproliferative activity of compound I as well as its newly synthesised analogues (5a–i) was evaluated in vitro against the three human breast cancer cell lines MDA-MB-231 (TNBC), T47D (ER^+, HER^−), and BT474 (ER^+, HER^+) as well as a human pancreatic cancer cell line MIAPaCa2. The seeding of the corresponding cell lines started one day before incubation, which lasted for 72 h with the different concentrations of the tested compounds. CellTiter Glo reagent (25 μL) was added to the cell plate. The luminescence was analysed after 10 min using a PerkinElmer Envision instrument. The test compounds were used at ten different triplicate concentrations in half log increments up to 100 μM.

[1] = system: MDA-MB-231, T47D, BT474, and MIAPaCa2; assay: Cell viability assay, statements across the four cell lines; format: cell-based, human; conditions: three human breast and one pancreatic cancer cell line, up to 100 μM
Method: as §1

FAK = biological target: T1, FAK (Homo sapiens, UniProt Q05397); assay: Western blotting of FAK activity; format: cell-based; conditions: MDA-MB-231, Western blot
T1 construct: in an in vitro model of TNBC, MDA-MB-231; endogenous in cells; host or cells: MDA-MB-231 (human triple negative breast cancer cells)
From the text: This was expected, given that this compound limits protein–protein scaffolding interaction rather than kinase activity and subsequent phosphorylation of key FAK residues.

MDA-MB-231 cells [2] = assay: Immunofluorescence of active FAK (FAK Y861) and vinculin; format: cell-based, human
Method: The resulting fixed cells were subsequently permeabilised with 0.2% Triton-X100 in PBS for 8 min. This was proceeded by a 40 min block in 10% normal goat serum (in 1% BSA in PBS) prior to 30 min primary antibody incubation. Both FAK^Y861 and vinculin antibodies were diluted to working concentration (1:100 and 1:200, respectively) in 1% BSA in PBS. […] Slides were viewed using a 63X oil immersion lens on a Leica DM IRE2 microscope (Leica Microsystems, Wetzlar, Germany).

[3] = Microsomal metabolic stability
Method: Half-life (t1/2) values were measured at five time points.
Intrinsic clearance values (CLint) with standard error and t1⁄2 values were measured.
The final incubation volume was 50 μL. A minus cofactor control incubation was included for each compound tested where 0.1 M phosphate buffer pH 7.4 was added instead of NADPH (minus NADPH). Two control compounds were included with each species. All incubations were performed singularly for each test compound.
The reactions were stopped by transferring 20 μL of incubate to 60 μL methanol at the appropriate time points. The termination plates were centrifuged at 2500 rpm for 20 min at 4 °C to precipitate the protein.
Following protein precipitation, the sample supernatants were combined in cassettes of up to 4 compounds, the internal standard was added, and samples were analysed using Cyprotex generic LC-MS/MS conditions.
From a plot of ln peak area ratio (compound peak area/internal standard peak area) against time, the gradient of the line was determined.

hERG potassium channel = hERG potassium channel (Homo sapiens, UniProt Q12809); assay: hERG channel inhibition (IonWorks automated patch clamp, CHO-hERG cells)
Method: Mammalian cells expressing the hERG potassium channel were dispensed into 384-well planar arrays and hERG tail-currents measured by whole-cell voltage-clamping. A range of concentrations of the test compound was then added to the cells and a second recording of the hERG current was made. […] IC50 is delivered, standard error (SE IC50), and n (number of data points used to calculate IC50) for the test compound. The experiments were performed on an Ion Works TM automated patch clamp instrument (Molecular Devices LLC (San Jose, California, United States)), which simultaneously performs electrophysiology measurements for 48 single cells in a specialised 384-well plate (PatchPlateTM(manufacturer, city, state if USA or Canada, country)). All cell suspensions, buffers, and test compound solutions were at room temperature during the experiment.
The cells used were Chinese hamster ovary (CHO) cells stably transfected with hERG (cell-line obtained from Cytomyx, UK). A single-cell suspension was prepared in extracellular solution (Dulbecco’s phosphate buffered saline with calcium and magnesium pH 7.2) and aliquots added automatically to each well of a Patch Plate TM. The cells were then positioned over a small hole at the bottom of each well by applying a vacuum beneath the plate to form an electrical seal. The vacuum was applied through a single compartment common to all wells which was filled with intracellular solution (buffered to pH 7.2 with HEPES). The resistance of each seal was measured via a common ground-electrode in the intracellular compartment and individual electrodes placed into each of the upper wells.
Electrical access to the cell was then achieved by circulating a perforating agent, amphotericin B, underneath the PatchPlateTM. The pre-compound hERG current was then measured. An electrode was positioned in the extracellular compartment and a holding potential of −80 mV applied for 15 s. The hERG channels were then activated by applying a depolarising step to +40 mV for 5 s and then clamped at −50 mV for 4 s to elicit the hERG tail current, before returning to −80 mV for 0.3 s.
The Ion Works TM instrument automatically adds test compound dilutions to the upper wells of the PatchPlateTM. The test compound was left in contact with the cells for 300 s before recording currents using the same voltage-step protocol as in the pre-compound scan.
Each concentration was tested in 4 replicate wells on the PatchPlateTM (maximum of 24 data points). Filters were applied to ensure only acceptable cells were used to assess hERG inhibition.
For each replicate, the hERG response was calculated using the following equation:% hERG response = [Post-compound current (nA)/Pre-compound current (nA)] × 100(5)

MDA-MB-231 cells [4] = assay: Cell proliferation assay (7-day cell counting); format: cell-based, human; conditions: 7-day proliferation, 1 μM, vs vehicle-only control
Method: To assess proliferation, cells were seeded at 4.2 × 10^5 cells/mL in 24-well plates. Following 24 h, the media were replaced with fresh RPMI + 5% FCS, in the presence or absence of treatments and a selection of wells counted (day 0 counts). Cells were subsequently counted each day up to 7 days to assess proliferation. Briefly, this entailed the removal of old media and the addition of trypsin/EDTA in order to lift cells before passing gently through a 25 G needle to achieve a single-cell suspension. The resulting solution was then added to isoton in a counting cup and the cell number was determined using a Coulter Multisizer III (Beckman Coulter Life Sciences, Indianopolis, IN, USA) Each well was counted twice with all conditions performed in triplicate.

T47D = assay: Cell viability assay (CellTiter Glo), T47D; format: cell-based, human; conditions: Homo sapiens, T47D, 72 h, 72 h incubation, mean of independent triplicate experiments, read-out: In vitro anti-proliferative activity IC50, T47D ER+ PR+/- HER-
Method: as §1

[5] = Turbidimetric aqueous solubility; format: physicochemical; conditions: 37 °C, 2 h
Method: Both the estimated precipitation range (lower and upper bound) and a mid-range value were measured. Nicardipine and pyrene were used as control compounds.
The test compound was diluted in buffer to give a range of concentrations (1, 3, 10, 30, and 100 μM; final DMSO concentration 1%) and incubated at 37 °C for 2 hr.
The test compound (10 mM in DMSO) was serially diluted to give solutions of 0.1, 0.3, 1, and 3 mM in DMSO. Each test compound concentration was then further diluted 1 to 100 in buffer (typically 0.01 M phosphate buffered saline pH 7.4) so that the final DMSO concentration was 1%, and the final test compound concentrations were 1, 3, 10, 30, and 100 μM. The experiment was performed at 37 °C and each concentration was incubated in 7 replicate wells. The plates were incubated for 2 h at 37 °C before the absorbance was measured at 620 nm. Nicardipine and pyrene were included as control compounds. The solubility of nicardipine is pH dependent whereas the solubility of pyrene is pH independent.
An estimated precipitation range (lower and upper bound) and a calculated mid-range value were returned, along with any relevant comments, in the form of an Excel spreadsheet.

MDA-MB-231 = assay: Cell viability assay (CellTiter Glo), MDA-MB-231; format: cell-based; conditions: Homo sapiens, 72 h incubation, mean of independent triplicate experiments, read-out: In vitro anti-proliferative activity IC50, MDA-MB-231 ER- PR- HER-
Method: as §1

[6] = MDA-MB-231, 1 h serum stimulated
[7] = human, pooled liver microsomes, pH 7.4
[8] = buffered aqueous solution (PBS pH 7.4, 1% DMSO)

T1 sequence (Q05397 whole entry): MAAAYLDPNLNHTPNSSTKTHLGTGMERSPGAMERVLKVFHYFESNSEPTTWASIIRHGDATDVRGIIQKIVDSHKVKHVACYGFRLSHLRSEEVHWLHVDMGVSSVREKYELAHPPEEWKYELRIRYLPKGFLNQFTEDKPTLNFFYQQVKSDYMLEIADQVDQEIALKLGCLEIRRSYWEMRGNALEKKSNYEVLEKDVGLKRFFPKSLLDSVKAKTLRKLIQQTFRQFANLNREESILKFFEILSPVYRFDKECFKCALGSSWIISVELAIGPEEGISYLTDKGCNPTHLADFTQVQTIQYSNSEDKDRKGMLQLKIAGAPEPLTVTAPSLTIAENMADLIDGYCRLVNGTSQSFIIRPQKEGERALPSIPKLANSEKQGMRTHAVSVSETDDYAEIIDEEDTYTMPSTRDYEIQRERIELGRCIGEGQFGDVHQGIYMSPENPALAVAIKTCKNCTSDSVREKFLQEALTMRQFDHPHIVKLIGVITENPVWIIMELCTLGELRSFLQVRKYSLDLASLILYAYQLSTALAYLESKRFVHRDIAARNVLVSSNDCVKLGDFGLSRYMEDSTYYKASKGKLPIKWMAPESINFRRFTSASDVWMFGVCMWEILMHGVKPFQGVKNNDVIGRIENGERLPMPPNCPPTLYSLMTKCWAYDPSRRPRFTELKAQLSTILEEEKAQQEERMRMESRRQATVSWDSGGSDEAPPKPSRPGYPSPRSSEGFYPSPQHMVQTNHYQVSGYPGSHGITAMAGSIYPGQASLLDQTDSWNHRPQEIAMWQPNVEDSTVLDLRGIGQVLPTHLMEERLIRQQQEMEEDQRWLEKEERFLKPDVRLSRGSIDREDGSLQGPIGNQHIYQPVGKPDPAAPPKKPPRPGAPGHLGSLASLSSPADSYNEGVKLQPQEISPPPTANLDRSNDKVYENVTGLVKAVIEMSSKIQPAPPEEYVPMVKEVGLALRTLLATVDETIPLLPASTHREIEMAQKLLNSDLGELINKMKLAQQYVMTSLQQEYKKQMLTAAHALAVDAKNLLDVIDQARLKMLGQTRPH
Chain of hERG potassium channel (Q12809 whole entry): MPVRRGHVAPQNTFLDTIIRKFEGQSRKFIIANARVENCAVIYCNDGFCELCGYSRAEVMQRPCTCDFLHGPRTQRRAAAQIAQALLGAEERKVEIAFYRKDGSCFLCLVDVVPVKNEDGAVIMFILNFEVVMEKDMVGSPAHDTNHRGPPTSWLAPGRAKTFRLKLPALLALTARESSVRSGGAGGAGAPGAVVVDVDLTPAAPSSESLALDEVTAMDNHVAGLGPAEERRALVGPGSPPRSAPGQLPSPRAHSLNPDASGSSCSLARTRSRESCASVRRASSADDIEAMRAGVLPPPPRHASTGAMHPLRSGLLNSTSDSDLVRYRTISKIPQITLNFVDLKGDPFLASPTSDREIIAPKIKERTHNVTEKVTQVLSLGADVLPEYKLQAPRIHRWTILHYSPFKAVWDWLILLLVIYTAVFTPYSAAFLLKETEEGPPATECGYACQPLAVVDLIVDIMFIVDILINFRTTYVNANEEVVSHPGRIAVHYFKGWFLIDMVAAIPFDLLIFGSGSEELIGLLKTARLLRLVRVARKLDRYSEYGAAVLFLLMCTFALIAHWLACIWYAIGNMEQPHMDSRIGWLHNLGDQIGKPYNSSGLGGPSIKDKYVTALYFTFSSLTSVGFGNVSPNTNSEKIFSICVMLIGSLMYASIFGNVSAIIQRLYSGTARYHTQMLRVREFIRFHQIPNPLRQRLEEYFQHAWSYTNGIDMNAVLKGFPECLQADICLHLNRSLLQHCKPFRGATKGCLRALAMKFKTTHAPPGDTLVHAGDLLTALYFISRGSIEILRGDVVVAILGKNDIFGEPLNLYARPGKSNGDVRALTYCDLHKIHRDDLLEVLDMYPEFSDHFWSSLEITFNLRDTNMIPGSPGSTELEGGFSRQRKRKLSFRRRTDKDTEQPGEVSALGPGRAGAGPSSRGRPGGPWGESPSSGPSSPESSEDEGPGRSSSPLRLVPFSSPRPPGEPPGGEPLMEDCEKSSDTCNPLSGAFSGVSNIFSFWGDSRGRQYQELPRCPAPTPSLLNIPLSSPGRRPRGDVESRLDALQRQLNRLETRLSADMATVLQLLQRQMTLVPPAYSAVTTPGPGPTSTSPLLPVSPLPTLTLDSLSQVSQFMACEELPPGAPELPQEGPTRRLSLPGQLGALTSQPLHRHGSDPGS

## CC(C)(C)c1ccc(C(CN)c2ccc(Cl)cc2)cc1 (stereo not drawn) [Compound I]
BT474
  IC50: 2670 nM
[1]
  Anti-proliferative activity (in words) across the four cell lines: low micromolar antiproliferative activity
FAK
  Activity of FAK Y397 / FAK Y925 (phosphorylation): no significant changes
  Stability of total FAK protein: no changes in the stability of total FAK protein
MDA-MB-231 cells [2]; [6]
  Number of focal adhesions/cell: significant increase in focal adhesions
  Size of focal adhesions: no effect on the size of focal adhesions
MDA-MB-231 cells [2]; MDA-MB-231, 1 h serum stimulated, vs vehicle-only controls
  Localisation of FAK to the cell periphery: increased localisation of FAK to the cell periphery
MDA-MB-231 cells [2]; MDA-MB-231, versus PF271 treated cells
  Active FAK throughout the cytoplasm: significantly more active FAK displayed throughout the cytoplasm
[3]; human liver microsomes, 0 min
  Compound Remaining (% of 0 min), 0 min: 100 % of 0 min
[3]; human liver microsomes, 5 min
  Compound Remaining (% of 0 min), 5 min: 89.4 % of 0 min
[3]; human liver microsomes, 15 min
  Compound Remaining (% of 0 min), 15 min: 92.3 % of 0 min
[3]; human liver microsomes, 30 min
  Compound Remaining (% of 0 min), 30 min: 77.9 % of 0 min
[3]; human liver microsomes, 45 min
  Compound Remaining (% of 0 min), 45 min: 81.3 % of 0 min
[3]; human liver microsomes, minus NADPH control, 45 min
  Compound Remaining (% of 0 min), Control: 95.7 % of 0 min
[3]; [7]
  half-life at 3 μM: 152 min
  microsomal CLint at 3 μM: 9.1 µL/min/mg
hERG potassium channel
  IC50: 5.47 µM
MDA-MB-231 cells [4]
  Proliferation rates of MDA-MB-231 cells: significantly reduce proliferation rates
T47D
  IC50: 6.71 µM
[5]; [8]
  Estimated Precipitation Range, Calculated Mid-Range: >100 µM
  Estimated Precipitation Range, Lower Bound: 100 µM
  Estimated Precipitation Range, Upper Bound: >100 µM
[5]; turbidimetric
  Aqueous solubility (in words): high aqueous solubility
MDA-MB-231
  IC50: 6.37 µM
